# Experimental data taken from paper PMC8225905, “Activation and detoxification of cassava cyanogenic glucosides by the whitefly Bemisia tabaci” (Scientific Reports, 2021).
# Test system: T1, BtSUC5
# T1 construct: full-length ORF expressed in Drosophila S2 cells; secreted protein fraction (culture supernatant) assayed
# Assay: LC-MS transglucosidation assay, S2 cell culture supernatant
# Format: biochemical, Bemisia tabaci
# Conditions: 1 M sucrose as glucosyl donor; phosphate buffer pH 7.0; 25 °C; 30 min; glucosyl acceptor
compound,measurement,value
CC(C)(C#N)O[C@@H]1O[C@H](CO)[C@@H](O)[C@H](O)[C@H]1O [linamarin],Km,~500 µM
